Measurements as given in patent US20140187548A1, “6 SUBSTITUTED IMIDAZOPYRAZINES FOR USE AS MPS-1 AND TKK INHIBITORS IN THE TREATMENT OF HYPERPROLIFERATIVE DISORDERS” (BAYER INTELLECTUAL PROPERTY GMBH, priority 2010, published 2014).

These compounds were tested against T1, human kinase Mps-1 (Homo sapiens, UniProt P33981) (assay: Mps-1 kinase assay (TR-FRET)). Settings: N-terminally GST-tagged human full length recombinant Mps-1; 10 μM ATP; 1 μM peptide substrate; 15 min pre-incubation; 60 min at 22° C.
T1 construct: N-terminally GST-tagged human full length recombinant Mps-1 kinase; GST (N); purchased Invitrogen, Karslruhe, Germany PV4071
T1 sequence (P33981 1-857): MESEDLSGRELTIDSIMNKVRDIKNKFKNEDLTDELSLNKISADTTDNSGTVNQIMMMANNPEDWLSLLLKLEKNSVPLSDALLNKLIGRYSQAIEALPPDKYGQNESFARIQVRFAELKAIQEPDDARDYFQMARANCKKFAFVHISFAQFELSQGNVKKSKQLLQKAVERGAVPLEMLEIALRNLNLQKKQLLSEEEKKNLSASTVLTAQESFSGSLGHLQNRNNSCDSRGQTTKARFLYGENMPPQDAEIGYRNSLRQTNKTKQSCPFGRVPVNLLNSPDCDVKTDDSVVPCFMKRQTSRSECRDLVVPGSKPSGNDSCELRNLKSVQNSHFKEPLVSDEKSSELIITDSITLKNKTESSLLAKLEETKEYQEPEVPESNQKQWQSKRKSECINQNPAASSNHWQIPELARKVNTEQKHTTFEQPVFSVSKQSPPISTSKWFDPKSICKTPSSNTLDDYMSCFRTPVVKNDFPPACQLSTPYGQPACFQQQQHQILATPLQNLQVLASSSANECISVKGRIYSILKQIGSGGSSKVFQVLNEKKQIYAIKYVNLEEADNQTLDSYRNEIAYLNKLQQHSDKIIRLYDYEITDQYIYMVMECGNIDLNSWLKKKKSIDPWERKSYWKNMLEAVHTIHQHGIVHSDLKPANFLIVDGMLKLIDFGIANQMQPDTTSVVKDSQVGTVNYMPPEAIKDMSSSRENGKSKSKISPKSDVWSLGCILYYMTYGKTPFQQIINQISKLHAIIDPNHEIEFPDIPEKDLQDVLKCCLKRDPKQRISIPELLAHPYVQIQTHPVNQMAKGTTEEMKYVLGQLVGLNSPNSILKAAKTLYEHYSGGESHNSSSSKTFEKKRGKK
Assay type: biochemical
Outline: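 N-terminally GST-tagged full-length recombinant human Mps-1, about 1 nM final, phosphorylates a biotinylated peptide. Product detected by TR-FRET from Eu-anti-phospho-Ser/Thr antibody to streptavidin-XLent after 1 h at 22° C.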

Going from `CC(C)CNc1nc(-c2ccccc2)c(F)n2c(-c3ccc(C(=O)NC4CC4)cc3)cnc12` [Example 5-1, N-cyclopropyl-4-{5-fluoro-8-[(2-methylpropyl)amino]-6-phenylimidazo[1,2-a]pyrazin-3-yl}benzamide] to `CC(C)CNc1nc(-c2ccccc2)c(Cl)n2c(-c3ccc(C(=O)NC4CC4)cc3)cnc12` [Example 3-1, 4-{5-chloro-8-[(2-methylpropyl)amino]-6-phenylimidazo[1,2-a]pyrazin-3-yl}-N-cyclopropylbenzamide], the IC50 falls from 67 nM to 10.7 nM (6.3-fold). The second is the more potent here.

Compared with `CC(C)CNc1nc(-c2ccc(Cl)c(C(=O)NC3CC3)c2)cn2c(-c3ccc(C(=O)NC4CC4)cc3)cnc12` [Example 1-84, 2-chloro-N-cyclopropyl-5-{3-[4-(cyclopropyl-carbamoyl)phenyl]-8-[(2-methylpropyl)amino]imidazo[1,2-a]pyrazin-6-yl}benzamide], `CC(C)CNc1nc(-c2ccc(Cl)c(Cl)c2)cn2c(-c3ccc(C(=O)NC4CC4)cc3)cnc12` [Example 1-45, N-cyclopropyl-4-{6-(3,4-dichlorophenyl)-8-[(2-methylpropyl)amino]imidazo[1,2-a]pyrazin-3-yl}benzamide] is 5-fold higher in IC50: 4.5 nM for the first, 22.6 nM for the second. The first is the more potent here.

Compared with `CC(C)CNc1nc(-c2ccc(C(F)(F)F)cc2)cn2c(-c3ccc(C(=O)NC4CC4)cc3)cnc12` [Example 1-36, N-cyclopropyl-4-{8-[(2-methylpropyl)amino]-6-[4-(trifluoromethyl)phenyl]imidazo[1,2-a]pyrazin-3-yl}benzamide], `CC(C)CNc1nc(-c2ccc(F)cc2)cn2c(-c3ccc(C(=O)NC4CC4)cc3)cnc12` [Example 1-6, N-cyclopropyl-4-{6-(4-fluorophenyl)-8-[(2-methylpropyl)amino]imidazo[1,2-a]pyrazin-3-yl}benzamide] is 13-fold lower in IC50: 30 nM for the first, 2.3 nM for the second. The second is the more potent here.

Compared with `CC(C)CNc1nc(-c2ccc(C(=O)NC(C)C)cc2)cn2c(-c3ccc(C(=O)NC4CC4)cc3)cnc12` [Example 1-34, 4-{3-[4-(cyclopropyl-carbamoyl)phenyl]-8-[(2-methylpropyl)amino]imidazo[1,2-a]pyrazin-6-yl}-N-(propan-2-yl) benzamide], `CC(C)CNc1nc(-c2ccc(C(C)(C)C)cc2)cn2c(-c3ccc(C(=O)NC4CC4)cc3)cnc12` [Example 1-50, 4-{6-(4-tert-butylphenyl)-8-[(2-methylpropyl)amino]imidazo[1,2-a]pyrazin-3-yl}-N-cyclo-propylbenzamide] is 18-fold higher in IC50: 4.2 nM for the first, 75.4 nM for the second.

`NC(=O)CCNc1nc(-c2ccccc2)cn2c(-c3ccc(C(=O)NC4CC4)cc3)cnc12` [Example 2-42, 4-{8-[(3-amino-3-oxopropyl)amino]-6-phenylimidazo[1,2-a]pyrazin-3-yl}-N-cyclopropyl-benzamide] and `NCCCCNc1nc(-c2ccccc2)cn2c(-c3ccc(C(=O)NC4CC4)cc3)cnc12` [Example 2-67] are within 1.5-fold of each other in IC50: 5 nM for the first, 7.2 nM for the second.

`CC(C)(O)CNc1nc(-c2ccc(F)cc2)cn2c(-c3ccc(C(=O)NC4CC4)cc3)cnc12` [Example 1-131, N-cyclopropyl-4-{6-(4-fluorophenyl)-8-[(2-hydroxy-2-methylpropyl)amino]imidazo[1,2-a]pyrazin-3-yl}benzamide] and `CC(C)(O)CNc1nc(-c2ccccc2)cn2c(-c3ccc(C(=O)NC4CC4)cc3)cnc12` [Example 1-125, N-cyclopropyl-4-{8-[(2-hydroxy-2-methylpropyl)amino]-6-phenylimidazo[1,2-a]pyrazin-3-yl}benzamide] are within 1.5-fold of each other in IC50: 1.6 nM for the first, 1.1 nM for the second.

Compared with `O=C(NC1CC1)c1ccc(-c2cnc3c(NCC4CCCO4)nc(-c4ccccc4CO)cn23)cc1F` (stereo not shown) [Example 1-118, N-cyclopropyl-2-fluoro-4-{6-[2-(hydroxymethyl)phenyl]-8-[(tetrahydro-furan-2-ylmethyl)amino]imidazo[1,2-a]pyrazin-3-yl}benzamide], `CC(C)(O)CNc1nc(-c2ccccc2CO)cn2c(-c3ccc(C(=O)NC4CC4)c(F)c3)cnc12` [Example 1-116, N-cyclopropyl-2-fluoro-4-{6-[2-(hydroxymethyl)phenyl]-8-[(2-hydroxy-2-methylpropyl)amino]imidazo[1,2-a]pyrazin-3-yl}benzamide] is 1.7-fold higher in IC50: 20.1 nM for the first, 34.7 nM for the second. The first is the more potent here.

First: CC(C)CNc1nc(-c2ccc(Oc3ccccc3)cc2)cn2c(-c3ccc(C(=O)NC4CC4)cc3)cnc12 [Example 1-47, N-cyclopropyl-4-{8-[(2-methylpropyl)amino]-6-(4-phenoxyphenyl)imidazo[1,2-a]pyrazin-3-yl}benzamide]
Second: O=C(NC1CC1)c1ccc(-c2cnc3c(NCC(F)F)nc(-c4ccccc4)cn23)cc1 [Example 2-52, N-cyclopropyl-4-{8-[(2,2-difluoroethyl)amino]-6-phenylimidazo[1,2-a]pyrazin-3-yl}benzamide]
The IC50 of the first is 25-fold higher: 78.9 nM for the first, 3.1 nM for the second. The second is the more potent here.

Going from `O=C(NC1CC1)c1ccc(-c2cnc3c(NCc4ccccc4)nc(-c4ccccc4)cn23)cc1` [Example 2-15, 4-[8-(benzylamino)-6-phenylimidazo[1,2-a]pyrazin-3-yl]-N-cyclopropyl-benzamide] to `O=C(NC1CC1)c1ccc(-c2cnc3c(NCc4cccnc4)nc(-c4ccccc4)cn23)cc1` [Example 2-28, N-cyclopropyl-4-{6-phenyl-8-[(pyridin-3-ylmethyl)amino]imidazo[1,2-a]pyrazin-3-yl} benzamide], the IC50 falls from 3.8 nM to 2.2 nM (1.7-fold). The second is the more potent here.

Going from `O=C(NC1CC1)c1ccc(-c2cnc3c(NCCCN4CCOCC4)nc(-c4ccccc4)cn23)cc1` [Example 2-3, N-cyclopropyl-4-(8-{[3-(morpholin-4-yl)propyl]amino}-6-phenylimidazo[1,2-a]pyrazin-3-yl)benzamide] to `O=C(NC1CC1)c1ccc(-c2cnc3c(NC[C@H](O)CO)nc(-c4ccccc4)cn23)cc1` [Example 2-82, N-cyclopropyl-4-(8-{[(2S)-2,3-dihydroxypropyl]amino}-6-phenylimidazo[1,2-a]pyrazin-3-yl)benzamide], the IC50 falls from 6.9 nM to 4.4 nM (1.6-fold).

`Cc1cc(-c2cnc3c(NCCCC(C)O)nc(-c4ccc(F)cc4)cn23)ccc1C(=O)NC1CC1` (stereo not shown) [Example 10-12, N-cyclopropyl-4-{6-(4-fluorophenyl)-8-[(4-hydroxypentyl)amino]imidazo[1,2-a]pyrazin-3-yl}-2-methylbenzamide] and `CC(C)CNc1nc(-c2ccc(Cl)cc2Cl)cn2c(-c3ccc(C(=O)NC4CC4)cc3)cnc12` [Example 1-87, N-cyclopropyl-4-{6-(2,4-dichlorophenyl)-8-[(2-methylpropyl)amino]imidazo[1,2-a]pyrazin-3-yl}benzamide] are within 1.5-fold of each other in IC50: 7.1 nM for the first, 6.7 nM for the second.

First: CC(C)CNc1nc(-c2cccc(C(N)=O)c2)cn2c(-c3ccc(C(=O)NC4CC4)cc3)cnc12 [Example 1-25, 4-{6-(3-carbamoylphenyl)-8-[(2-methylpropyl)amino]imidazo[1,2-a]pyrazin-3-yl}-N-cyclo-propylbenzamide]
Second: COC(=O)c1cccc(-c2cn3c(-c4ccc(C(=O)NC5CC5)cc4)cnc3c(NCC(C)C)n2)c1 [Example 1-11, methyl 3-{3-[4-(cyclopropyl-carbamoyl)phenyl]-8-[(2-methylpropyl)amino]imidazo[1,2-a]pyrazin-6-yl}benzoate]
The IC50 of the first is 1.9-fold lower: 1.2 nM for the first, 2.3 nM for the second.

Work on `COc1c(C)cc(-c2cn3c(-c4ccc(C(=O)NC5CC5)cc4)cnc3c(NCC(C)C)n2)cc1C` [Example 1-68, N-cyclopropyl-4-{6-(4-methoxy-3,5-dimethylphenyl)-8-[(2-methyl-propyl)amino]imidazo [1,2-a]pyrazin-3-yl} benzamide] yielded an IC50 of 19.7 nM.
